Among the data in patent US8148391B2 (Cephalon, Inc., priority 2006, dated 2012) are IC50 values, retold here.

SMILES strings stand for the structures. Like-named read-outs stand apart in the source and are kept apart here.

In experiment [1] the target is T1, baculovirus-expressed ALK (Homo sapiens, UniProt Q9UM73).
T1 construct: host or cells: baculovirus expression system
Description: ALK Kinase Assay (ELISA-type, time-resolved fluorescence). Type of experiment: biochemical. The note with it: 1 μM ATP (Km level). The procedure, abridged:
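Substrate coating: phospholipase C-γ, 10 μg/mL in TBS. Kinase step: 30 ng/ml ALK, 15 min, 37° C. Detection and analysis: Eu-N1 PT66 antibody, with IC50 fitted as a sigmoidal variable-slope dose-response curve.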
Background: ELISA stands for enzyme-linked immunosorbent assay.

The target in experiment [2] is T2, c-Met (cytoplasmic domain) (Homo sapiens, UniProt P08581).
T2 construct: 10 ng/mL c-Met (cytoplasmic domain, Invitrogen Corporation #PV3143); purchased Invitrogen Corporation PV3143
T2 sequence (P08581 956-1390 limits assumed): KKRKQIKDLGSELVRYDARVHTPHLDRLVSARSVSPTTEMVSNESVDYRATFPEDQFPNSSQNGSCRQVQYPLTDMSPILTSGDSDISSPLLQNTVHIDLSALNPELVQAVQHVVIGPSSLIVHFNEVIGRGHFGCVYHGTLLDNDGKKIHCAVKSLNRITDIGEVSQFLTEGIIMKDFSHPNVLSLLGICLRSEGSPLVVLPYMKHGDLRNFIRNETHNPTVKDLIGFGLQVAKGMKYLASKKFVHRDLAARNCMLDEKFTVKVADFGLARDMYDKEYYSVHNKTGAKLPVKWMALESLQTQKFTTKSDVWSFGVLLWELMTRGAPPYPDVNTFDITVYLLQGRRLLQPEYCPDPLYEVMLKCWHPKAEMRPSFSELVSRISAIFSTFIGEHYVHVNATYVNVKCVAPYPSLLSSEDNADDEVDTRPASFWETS
The experiment is described as follows: c-Met Kinase Assay (same methods as for ALK, with modifications). The class given is biochemical. Particulars: 1 μM ATP (Km level). The procedure, abridged:
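Wells were coated with 10 μg/mL phospholipase C-γ substrate in TBS, and reactions were started with 10 ng/mL c-Met cytoplasmic domain and run at 37° C for 15 minutes. Phosphorylated product was detected with Eu-N1-labeled PT66 antibody. IC50 values came from sigmoidal variable-slope fits of percent inhibition versus log compound concentration.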

[3] abbreviates: 30 ng/ml ALK, 37° C., 15 minutes, read-out: ALK Activity (ALK kinase inhibition, IC50 class).
Where [4] appears, read: 10 ng/mL c-Met, read-out: cMet Activity (c-Met kinase inhibition, IC50 class).
The mark [5] stands for this setting: ALK kinase inhibition, read-out: ALK Activity.
[6] abbreviates: c-Met kinase inhibition, read-out: cMet Activity.

T1 sequence (Q9UM73 19-1620): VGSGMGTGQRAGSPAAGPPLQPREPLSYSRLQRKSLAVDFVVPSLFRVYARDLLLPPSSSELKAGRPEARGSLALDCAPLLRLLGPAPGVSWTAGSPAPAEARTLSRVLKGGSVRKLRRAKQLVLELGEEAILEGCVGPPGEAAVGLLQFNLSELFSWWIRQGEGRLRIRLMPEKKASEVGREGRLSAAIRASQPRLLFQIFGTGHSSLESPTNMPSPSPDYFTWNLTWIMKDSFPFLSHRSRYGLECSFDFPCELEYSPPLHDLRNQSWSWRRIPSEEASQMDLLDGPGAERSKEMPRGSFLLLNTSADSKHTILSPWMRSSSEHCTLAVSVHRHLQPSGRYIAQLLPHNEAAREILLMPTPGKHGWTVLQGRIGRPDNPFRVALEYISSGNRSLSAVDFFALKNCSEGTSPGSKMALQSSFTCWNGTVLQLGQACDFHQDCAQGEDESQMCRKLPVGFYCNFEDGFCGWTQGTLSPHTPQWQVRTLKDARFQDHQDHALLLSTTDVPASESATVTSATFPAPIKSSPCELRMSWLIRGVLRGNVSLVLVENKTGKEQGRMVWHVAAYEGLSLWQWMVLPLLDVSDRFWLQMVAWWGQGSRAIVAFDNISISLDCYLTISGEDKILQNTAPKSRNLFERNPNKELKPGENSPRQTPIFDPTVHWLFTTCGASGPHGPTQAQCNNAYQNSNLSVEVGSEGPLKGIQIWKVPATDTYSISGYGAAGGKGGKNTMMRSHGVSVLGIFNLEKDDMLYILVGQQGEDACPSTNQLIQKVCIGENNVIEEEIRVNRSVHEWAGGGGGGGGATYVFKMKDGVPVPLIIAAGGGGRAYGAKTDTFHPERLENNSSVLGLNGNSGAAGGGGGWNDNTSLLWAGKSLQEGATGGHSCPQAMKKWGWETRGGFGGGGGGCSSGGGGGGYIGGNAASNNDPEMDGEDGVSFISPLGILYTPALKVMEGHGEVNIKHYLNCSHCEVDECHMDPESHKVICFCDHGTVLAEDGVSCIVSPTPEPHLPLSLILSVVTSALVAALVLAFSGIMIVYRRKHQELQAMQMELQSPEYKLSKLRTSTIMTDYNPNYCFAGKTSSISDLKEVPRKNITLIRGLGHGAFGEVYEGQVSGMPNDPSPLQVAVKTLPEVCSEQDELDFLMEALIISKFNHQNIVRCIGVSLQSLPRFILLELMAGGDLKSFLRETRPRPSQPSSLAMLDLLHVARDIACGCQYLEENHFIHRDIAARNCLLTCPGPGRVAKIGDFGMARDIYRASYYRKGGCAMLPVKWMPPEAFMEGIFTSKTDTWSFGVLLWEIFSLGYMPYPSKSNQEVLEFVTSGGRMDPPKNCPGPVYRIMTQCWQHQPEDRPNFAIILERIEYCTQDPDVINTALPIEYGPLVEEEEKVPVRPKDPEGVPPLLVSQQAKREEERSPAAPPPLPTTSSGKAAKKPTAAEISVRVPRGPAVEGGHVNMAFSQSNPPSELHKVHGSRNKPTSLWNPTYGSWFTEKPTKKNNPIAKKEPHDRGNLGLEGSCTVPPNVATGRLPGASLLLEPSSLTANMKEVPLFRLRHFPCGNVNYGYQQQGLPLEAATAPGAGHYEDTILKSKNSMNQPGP

In the case of `COc1cc2c(cc1Nc1ncc(Cl)c(N[C@@H]3CCCC[C@H]3NS(C)(=O)=O)n1)CCC(N1CCN(C)CC1)CC2` (single isomer, unassigned) [Example 1101], the values for the IC50 in experiment [1] (setting [3]) and in experiment [2] (setting [4]) were under 0.1 µM and over 10 µM, respectively.

Turning to `COc1cc2c(cc1Nc1ncc(Cl)c(N[C@@H]3CCCC[C@H]3NS(C)(=O)=O)n1)CCC(N1CCN(C)CC1)CC2` (single isomer, unassigned) [Example 1102], the IC50 in experiment [1] (setting [3]) and in experiment [2] (setting [4]) was under 0.1 µM each time.

In the case of `CCN1C(=O)[C@H](N)CCc2c1ccc(Nc1ncc(Cl)c(N[C@H]3[C@@H](C(N)=O)[C@@H]4C=C[C@H]3C4)n1)c2OC` (single isomer, unassigned) [Example 1331], the IC50 is under 0.1 µM in experiment [1] (setting [3]) and over 10 µM in experiment [2] (setting [4]).

In the case of `CCN1C(=O)[C@@H](N)CCc2c1ccc(Nc1ncc(Cl)c(N[C@H]3[C@@H](C(N)=O)[C@@H]4C=C[C@H]3C4)n1)c2OC` (single isomer, unassigned) [Example 1332], the IC50 in experiment [1] (setting [3]) was under 0.1 µM; in experiment [2] (setting [4]) it was over 10 µM.

As for `CCN1C(=O)[C@H](N2CCOCC2)CCc2c1ccc(Nc1ncc(Cl)c(N[C@H]3[C@@H](C(N)=O)[C@@H]4C=C[C@H]3C4)n1)c2OC` (single isomer, unassigned) [Example 1344], the IC50 was under 0.1 µM in experiment [1] (setting [3]) and over 10 µM in experiment [2] (setting [4]).

In the case of `CCN1C(=O)[C@@H](N2CCOCC2)CCc2c1ccc(Nc1ncc(Cl)c(N[C@H]3[C@@H](C(N)=O)[C@@H]4C=C[C@H]3C4)n1)c2OC` (single isomer, unassigned) [Example 1345], the figures for the IC50 in experiment [1] (setting [3]) and in experiment [2] (setting [4]) were under 0.1 µM and over 10 µM, respectively.

Consider `CCN1C(=O)[C@H](N(C)C)CCc2c1ccc(Nc1ncc(Cl)c(N[C@H]3[C@@H](C(N)=O)[C@@H]4C=C[C@H]3C4)n1)c2OC` (single isomer, unassigned) [Example 1346], for which the results for the IC50 in experiment [1] (setting [3]) and in experiment [2] (setting [4]) were under 0.1 µM and 1 to 10 µM, respectively.

`CCN1C(=O)[C@@H](N(C)C)CCc2c1ccc(Nc1ncc(Cl)c(N[C@H]3[C@@H](C(N)=O)[C@@H]4C=C[C@H]3C4)n1)c2OC` (single isomer, unassigned) [Example 1347]: the IC50 in experiment [1] (setting [3]) was under 0.1 µM; in experiment [2] (setting [4]), 1 to 10 µM.

Regarding `CCN1C(=O)[C@H](NC(=O)COC)CCc2c1ccc(Nc1ncc(Cl)c(N[C@H]3[C@@H](C(N)=O)[C@@H]4C=C[C@H]3C4)n1)c2OC` (single isomer, unassigned) [Example 1350], the IC50 in experiment [1] (setting [3]) is under 0.1 µM; in experiment [2] (setting [4]), over 10 µM.

As for `CCN1C(=O)[C@@H](NC(=O)COC)CCc2c1ccc(Nc1ncc(Cl)c(N[C@H]3[C@@H](C(N)=O)[C@@H]4C=C[C@H]3C4)n1)c2OC` (single isomer, unassigned) [Example 1351], the values for the IC50 in experiment [1] (setting [3]) and in experiment [2] (setting [4]) were under 0.1 µM and over 10 µM, respectively.

In the case of `CCN1C(=O)[C@H](NC(=O)CN(C)C)CCc2c1ccc(Nc1ncc(Cl)c(N[C@H]3[C@@H](C(N)=O)[C@@H]4C=C[C@H]3C4)n1)c2OC` (single isomer, unassigned) [Example 1354], the values for the IC50 in experiment [1] (setting [3]) and in experiment [2] (setting [4]) were under 0.1 µM and over 10 µM, respectively.

As to `CCN1C(=O)[C@@H](NC(=O)CN(C)C)CCc2c1ccc(Nc1ncc(Cl)c(N[C@H]3[C@@H](C(N)=O)[C@@H]4C=C[C@H]3C4)n1)c2OC` (single isomer, unassigned) [Example 1355], the IC50 was under 0.1 µM in experiment [1] (setting [3]) and over 10 µM in experiment [2] (setting [4]).

As for `CCN1C(=O)[C@H](NC(=O)C2CC2)CCc2c1ccc(Nc1ncc(Cl)c(N[C@H]3[C@@H](C(N)=O)[C@@H]4C=C[C@H]3C4)n1)c2OC` (single isomer, unassigned) [Example 1357], the figures for the IC50 in experiment [1] (setting [3]) and in experiment [2] (setting [4]) were under 0.1 µM and over 10 µM, respectively.

As to `CCN1C(=O)[C@@H](NC(=O)C2CC2)CCc2c1ccc(Nc1ncc(Cl)c(N[C@H]3[C@@H](C(N)=O)[C@@H]4C=C[C@H]3C4)n1)c2OC` (single isomer, unassigned) [Example 1358], the values for the IC50 in experiment [1] (setting [3]) and in experiment [2] (setting [4]) were under 0.1 µM and over 10 µM, respectively.

Take `CNC(=O)c1ccccc1Nc1nc(Nc2ccc3c(c2)CCCC(=O)N3)ncc1Cl` [Example 2, 2-[5-Chloro-2-(2-oxo-2,3,4,5-tetrahydro-1H-benzo[b]azepin-7-ylamino)-pyrimidin-4-ylamino]-N-methyl-benzamide]: the IC50 in experiment [1] (setting [5]) and in experiment [2] (setting [6]) was under 0.1 µM throughout.

With `CNS(=O)(=O)c1ccccc1Nc1nc(Nc2ccc3c(c2)CCCC(=O)N3)ncc1Cl` [Example 5, 2-[5-Chloro-2-(2-oxo-2,3,4,5-tetrahydro-1H-benzo[b]azepin-7-ylamino)-pyrimidin-4-ylamino]-N-methyl-benzenesulfonamide], the IC50 in experiment [1] (setting [5]) and in experiment [2] (setting [6]) was under 0.1 µM in each case.

Consider `CN1C(=O)CCCc2cc(Nc3ncc(Cl)c(Nc4ccccc4C(=O)NCCO)n3)ccc21` [Example 6, 2-[5-Chloro-2-(1-methyl-2-oxo-2,3,4,5-tetrahydro-1H-benzo[b]azepin-7-ylamino)-pyrimidin-4-ylamino]-N-(2-hydroxy-ethyl)-benzamide], for which the IC50 in experiment [1] (setting [5]) and in experiment [2] (setting [6]) was under 0.1 µM each time.

For the compound `CNS(=O)(=O)c1ccccc1Nc1nc(Nc2ccc3c(c2)CCCC(=O)N3CC(=O)OC)ncc1Cl` [Example 8, {7-[5-Chloro-4-(2-methylsulfamoyl-phenylamino)-pyrimidin-2-ylamino]-2-oxo-2,3,4,5-tetrahydro-benzo[b]azepin-1-yl}-acetic acid methyl ester], the IC50 in experiment [1] (setting [5]) and in experiment [2] (setting [6]) was under 0.1 µM each time.

Consider `CNS(=O)(=O)c1ccccc1Nc1nc(Nc2ccc3c(c2)CCCC(=O)N3CC(=O)O)ncc1Cl` [Example 9, {7-[5-Chloro-4-(2-methylsulfamoyl-phenylamino)-pyrimidin-2-ylamino]-2-oxo-2,3,4,5-tetrahydro-benzo[b]azepin-1-yl}-acetic acid], for which the IC50 in experiment [1] (setting [5]) and in experiment [2] (setting [6]) was under 0.1 µM throughout.

`CNS(=O)(=O)c1ccccc1Nc1nc(Nc2ccc3c(c2)CCCC(=O)N3CC(=O)N2CCN(C)CC2)ncc1Cl` [Example 10, 2-(5-Chloro-2-{1-[2-(4-methyl-piperazin-1-yl)-2-oxo-ethyl]-2-oxo-2,3,4,5-tetrahydro-1H-benzo[b]azepin-7-ylamino}-pyrimidin-4-ylamino)-N-methyl-benzenesulfonamide]: the IC50 in experiment [1] (setting [5]) and in experiment [2] (setting [6]) was under 0.1 µM in each case.

Turning to `CNC(=O)c1ccccc1Nc1nc(Nc2ccc3c(c2)CCCNC3=O)ncc1Cl` [Example 11, 2-[5-Chloro-2-(1-oxo-2,3,4,5-tetrahydro-1H-benzo[c]azepin-7-ylamino)-pyrimidin-4-ylamino]-N-methyl-benzamide], the IC50 in experiment [1] (setting [5]) and in experiment [2] (setting [6]) was under 0.1 µM in each case.

As for `CNC(=O)c1ccccc1Nc1nc(Nc2ccc3c(c2)COC[C@@H]2CCCN32)ncc1Cl` [Example 12, 2-{5-Chloro-2-[(S)-(2,3,3a,4-tetrahydro-1H,6H-5-oxa-10b-aza-benzo[e]azulen-8-yl)amino]-pyrimidin-4-ylamino}-N-methyl-benzamide], the IC50 in experiment [1] (setting [5]) and in experiment [2] (setting [6]) was under 0.1 µM throughout.

Take `CNS(=O)(=O)c1ccccc1Nc1nc(Nc2ccc3c(c2)COC[C@@H]2CCCN32)ncc1Cl` [Example 13, 2-{5-Chloro-2-[(S)-(2,3,3a,4-tetrahydro-1H,6H-5-oxa-10b-aza-benzo[e]azulen-8-yl)amino]-pyrimidin-4-ylamino}-N-methyl-benzenesulfonamide]: the results for the IC50 in experiment [1] (setting [5]) and in experiment [2] (setting [6]) were under 0.1 µM and 1 to 10 µM, respectively.

On to `CNC(=O)c1ccccc1Nc1nc(Nc2ccc3c(c2)COCC2CCCCN32)ncc1Cl` (stereo not shown) [Example 14, 2-[5-Chloro-2-(7,7a,8,9,10,11-hexahydro-5H-6-oxa-11a-aza-dibenzo[a,c]cyclohepten-3-ylamino)-pyrimidin-4-ylamino]-N-methyl-benzamide], for which the IC50 in experiment [1] (setting [5]) and in experiment [2] (setting [6]) was under 0.1 µM in each case.

In the case of `CNC(=O)c1ccccc1Nc1nc(Nc2ccc3c(c2)COCCN3C)ncc1Cl` [Example 15, 2-[5-Chloro-2-(1-methyl-1,2,3,5-tetrahydro-benzo[e][1,4]oxazepin-7-ylamino)-pyrimidin-4-ylamino]-N-methyl-benzamide], the IC50 in experiment [1] (setting [5]) and in experiment [2] (setting [6]) was under 0.1 µM each time.

`CNS(=O)(=O)c1ccccc1Nc1nc(Nc2ccc3c(c2)COCCN3C)ncc1Cl` [Example 17, 2-[5-Chloro-2-(1-methyl-1,2,3,5-tetrahydro-benzo[e][1,4]oxazepin-7-ylamino)-pyrimidin-4-ylamino]-N-methyl-benzenesulfonamide]: the IC50 in experiment [1] (setting [5]) and in experiment [2] (setting [6]) was under 0.1 µM throughout.

Regarding `CNC(=O)c1ccccc1Nc1nc(Nc2ccc(OC)c3c2NC(=O)CCC3)ncc1Cl` [Example 18, 2-[5-Chloro-2-(6-methoxy-2-oxo-2,3,4,5-tetrahydro-1H-benzo[b]azepin-9-ylamino)-pyrimidin-4-ylamino]-N-methyl-benzamide], the IC50 was under 0.1 µM in experiment [1] (setting [5]) and 1 to 10 µM in experiment [2] (setting [6]).

As to `CCN1CCc2ccc(Nc3ncc(Cl)c(Nc4ccccc4C(=O)NC)n3)cc2CC1` [Example 31, 2-[5-Chloro-2-(3-ethyl-2,3,4,5-tetrahydro-1H-benzo[d]azepin-7-ylamino)-pyrimidin-4-ylamino]-N-methyl-benzamide], the IC50 in experiment [1] (setting [5]) and in experiment [2] (setting [6]) was under 0.1 µM each time.

On to `CCN1CCc2ccc(Nc3ncc(Cl)c(Nc4ccccc4S(=O)(=O)NC)n3)cc2CC1` [Example 32, 2-[5-Chloro-2-(3-ethyl-2,3,4,5-tetrahydro-1H-benzo[d]azepin-7-ylamino)-pyrimidin-4-ylamino]-N-methyl-benzenesulfonamide], for which the IC50 in experiment [1] (setting [5]) and in experiment [2] (setting [6]) was under 0.1 µM in each case.
